Results from patent publication US12616192B2, “Compositions and methods for preserving or increasing platelet function” (Washington University, priority 2021, dated 2026).
Like-named read-outs stand apart in the source and are kept apart here.

Key:
[1] = tested on: platelet concentrates (CS-PLT); assay: occlusive clot formation in a collagen-coated stenotic microfluidic chamber (microfluidic model of occlusion); type: cell-based; settings: for time to occlude the microfluidic channel versus non-supplemented CS-PLT: 500 μM taurine at the beginning of storage
Protocol: Next, the ability of the platelet concentrates to form an occlusive clot against an arterial pressure head in a stenotic microfluidic chamber coated with collagen was analyzed (FIG. 2). The important variable/metric extracted from this platelet function is the occlusion area under the curve, or OAUC; a larger OAUC implies faster and more robust occlusion, and thus improved hemostatic platelet function.
To determine if this was the case, experiments were performed to supplement CS-PLT with taurine during storage, with the hypothesis that the supplemental (or “extra”) taurine would lead to inhibition of aggregation, as similar to the aforementioned reports from the literature. Next, the platelet concentrates were supplemented at the beginning of storage with 500 μM taurine, and assayed for alterations in function using a microfluidic model of occlusion.

platelets [2] = settings: rats fed taurine; cited from earlier work
platelets [3] = settings: in vitro taurine addition; cited from earlier work
platelets [4] = settings: cited from earlier work

NCCS(=O)(=O)O [taurine, 2-aminoethanesulfonic acid]
platelet aggregation (shift of occlusion curves, OAUC) ([1]; CS-PLT supplemented with 500 μM taurine at the beginning of storage (TaurSTORAGE)): increased platelet aggregation
time to occlude the microfluidic channel versus non-supplemented CS-PLT ([1]; D7 CS-PLT): half of the time
time to occlude the microfluidic channel versus non-supplemented CS-PLT ([1]; D14 CS-PLT): half of the time
occlusion curve phenotype ([1]; D14 non-supplemented CS-PLT, exogenous taurine 500 μM added just prior to assessment (TaurASSAY)): middle phenotype
hemostatic function under physiologically relevant flow ([1]; taurine supplementation during platelet concentrate storage): robustly increases hemostatic function
ex vivo platelet aggregation (platelets [2]): reduced platelet aggregation
platelet aggregation (platelets [3]): inhibit platelet aggregation
ex vivo platelet aggregation (platelets [4]; 1989 study, taurine supplementation in humans): reduced aggregation
ex vivo platelet aggregation (platelets [4]; 2010 study, healthy human donors that drank taurine-containing solutions): increased ex vivo aggregation
